In US8940762B2, “Methods for treating pain” (AbbVie Inc., priority 2010, dated 2015):

Tests used:
[1] = tested on: osteoarthritic rats (MIA-induced osteoarthritis pain); assay: Monoiodoacetate-induced osteoarthritis (MIA-OA) pain model, hind limb grip force; format: in vivo, Sprague-Dawley rats; settings: for percent return of grip force to normalcy: n=6
Description: Pain behavior was assessed by measurement of hind limb grip force (GF) in adult osteoarthritic rats. Unilateral knee joint osteoarthritis was induced in rats by a single intraarticular (i.a.) injection of sodium monoiodoacetate (MIA) (Sigma, St. Louis, Mo.) (3 mg in 0.05 ml sterile isotonic saline) into the joint cavity using a 26 G needle under light (2-4%) isoflurane anesthesia, as previously described ([…]., Honore, P., 2009, Pharmacological modulation of movement-evoked pain in a rat model, Eur. J. […] Following injection, the animals were allowed to recover from the effects of anesthesia (usually 5-10 minutes) before returning them to their home cages. Grip strength was assessed in osteoarthritic rats as a measure of activity-induced pain. Measurements of peak hind limb grip force were conducted by recording the maximum compressive force (CFmax), in grams of force, exerted on the hind limb strain gauge, in a commercially available grip force measurement system (Columbus Instruments, Columbus, Ohio). During testing, each rat was gently restrained and allowed to grasp the wire mesh frame (10×12 cm) attached to the strain gauge. The animal was then moved in a rostral-to-caudal direction until the grip was broken. Each rat was sequentially tested twice at an approximately two-three minute interval to obtain a raw mean grip force (CFmax in gram force units). In order to account for the body weight differences among the rats, this raw mean grip force was converted to a maximum hind limb compressive force for each animal by dividing the CFmax by the body weight of the rat in kg [(CFmax in gram force)/kg body weight]. […] Compound A was administered in 10% DMSO/HBC vehicle orally at a volume of 2 ml/kg, 60 minutes before testing. The NSAID diclofenac (30 mg/kg, p.o.) was given 60 minutes before data collection and used as a positive control. A group of age-matched naïve (not injected with MIA) animals was added as a comparator to the drug-dosed groups. The vehicle control response for each group of MIA-treated animals was defined as the 0% response (0% effect), whereas the naïve control group was defined as the normal response and as 100% effect. The % effects for each dose group was expressed as % return of response to normalcy, compared to the naïve group. That is, the % effect=(Treatment CFmax-Vehicle CFmax)[…]]×100). Higher % effect numbers indicate increased relief from the pain in the model, with 100% indicating a return to the level of response seen in normal (non-osteoarthritic) animals. The data obtained from various dose groups for the test compound were compared with data from the naïve group.

[2] = tested on: CCI rats (sciatic nerve-induced neuropathic pain); settings: single dose p.o.; at less than about 100 micromoles/kg, for example less than about 30 micromoles/kg
Source text: Food and water were available ad libitum at all times except during testing. […]
The von Frey filaments were presented perpendicularly to the plantar surface of the selected hind paw, and then held in this position for approximately 8 seconds with enough force to cause a slight bend in the filament. Positive responses included an abrupt withdrawal of the hind paw from the stimulus, or flinching behavior immediately following removal of the stimulus.

SMILES | percent return of grip force to normalcy ([1]; 3 μmol/kg p.o., 60 minutes before data collection, MIA rats) | percent return of grip force to normalcy ([1]; 10 μmol/kg p.o., 60 minutes before data collection, MIA rats) [%] | percent return of grip force to normalcy ([1]; 30 μmol/kg p.o., 60 minutes before data collection, MIA rats) [%] | ED50 (return of grip force to normalcy) ([1]; p.o., 60 minutes before testing, MIA rats) | change in Paw Withdrawal Threshold versus vehicle [2] | % Effect (return of grip force to normalcy) ([1]; 30 mg/kg p.o., 60 minutes before data collection, positive control)
c1cc2cc(-c3ccc(O[C@H]4C[C@H]5CC[C@@H](C4)N5)cn3)ccc2[nH]1 [Compound A, 5-(5-((1R,3r,5S)-8-azabicyclo[3.2.1]octan-3-yloxy)pyridine-2-yl)-1H-indole] | approximately 39% | ~60 | ~73 | approximately 6 μmol/kg | statistically significant change | 
O=C(O)Cc1ccccc1Nc1c(Cl)cccc1Cl [diclofenac, reference compound] |  |  |  |  |  | about 69%
